For test [1], the target named is T1, Oxytocin receptor (Rattus norvegicus) (UniProt P70536).
T1 sequence (whole entry): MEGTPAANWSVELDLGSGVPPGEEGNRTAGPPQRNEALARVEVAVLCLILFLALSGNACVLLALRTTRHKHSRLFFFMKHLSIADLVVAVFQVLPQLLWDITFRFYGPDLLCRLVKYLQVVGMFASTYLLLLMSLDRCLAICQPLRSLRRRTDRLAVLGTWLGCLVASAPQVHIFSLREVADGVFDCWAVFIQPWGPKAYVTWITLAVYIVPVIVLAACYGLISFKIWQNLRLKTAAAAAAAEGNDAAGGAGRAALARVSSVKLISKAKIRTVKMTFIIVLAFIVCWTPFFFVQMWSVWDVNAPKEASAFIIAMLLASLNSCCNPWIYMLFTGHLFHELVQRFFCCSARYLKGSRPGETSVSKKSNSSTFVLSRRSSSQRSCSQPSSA
Nature of the test: Agonist activity in rat uterus by uterotonic assay. The class given is functional, tissue-based.

In test [2] the target is T2, Oxytocin receptor (Homo sapiens, UniProt P30559).
T2 sequence (P30559 whole entry): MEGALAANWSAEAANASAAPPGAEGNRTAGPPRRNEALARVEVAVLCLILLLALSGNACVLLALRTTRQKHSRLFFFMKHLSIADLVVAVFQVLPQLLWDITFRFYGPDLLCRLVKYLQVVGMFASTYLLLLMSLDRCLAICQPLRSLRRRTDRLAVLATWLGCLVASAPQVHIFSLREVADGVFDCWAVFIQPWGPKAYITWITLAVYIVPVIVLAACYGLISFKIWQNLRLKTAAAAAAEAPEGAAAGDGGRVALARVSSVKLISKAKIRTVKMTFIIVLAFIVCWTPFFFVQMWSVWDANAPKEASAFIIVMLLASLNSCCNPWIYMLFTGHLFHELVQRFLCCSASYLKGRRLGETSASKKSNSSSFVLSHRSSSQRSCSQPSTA
Nature of the test: Displacement of [3H]OT from human OT receptor expressed in HEK cells. Type of test: cell-based, HEK293.

Test [3] addresses T3, Oxytocin receptor (Rattus norvegicus, UniProt P70536).
T3 sequence (P70536 whole entry): T1 sequence (whole entry)
Nature of the test: Antagonist activity in rat uterus by uterotonic assay. To be noted: read-out: pA2 (converted). The class given is functional, tissue-based.

The target of test [4] is Vasopressin V1a receptor (Rattus norvegicus) (UniProt P30560). Nature of the test: Agonist activity in phenoxybenzamine-treated rat up to 0.16 mg/kg by Pressor assay.
Vasopressin V1a receptor (Rattus norvegicus), sequence (P30560 whole entry, looked up): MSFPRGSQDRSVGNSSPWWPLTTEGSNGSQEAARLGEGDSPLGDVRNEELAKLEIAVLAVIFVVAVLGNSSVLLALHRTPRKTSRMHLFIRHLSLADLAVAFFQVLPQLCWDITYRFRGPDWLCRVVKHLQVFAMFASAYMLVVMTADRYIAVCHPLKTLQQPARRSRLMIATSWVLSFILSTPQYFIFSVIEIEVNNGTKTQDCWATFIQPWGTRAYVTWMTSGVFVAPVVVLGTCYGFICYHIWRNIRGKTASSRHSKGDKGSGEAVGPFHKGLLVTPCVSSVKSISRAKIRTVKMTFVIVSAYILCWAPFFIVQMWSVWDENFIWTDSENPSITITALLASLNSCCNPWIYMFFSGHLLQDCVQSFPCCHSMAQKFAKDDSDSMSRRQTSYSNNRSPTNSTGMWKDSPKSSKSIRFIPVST

Calls of active or inactive are those of the source. No cut-off for these calls is given here. Bridge positions count the residues as written; N and C are the ends. Square brackets hold non-standard residues; d marks the D form. Peptide text beside a SMILES is read from it. Orn = NCCC[C@H](N)C(=O)O; Aib = CC(C)(N)C(=O)O; Mpa = O=C(O)CCS

Turning to `CCOc1ccc(CC2NC(=O)CCSSC[C@@H](C(=O)N3Cc4ccccc4C[C@@H]3C(=O)N[C@@H](CC(C)C)C(=O)NC(C)(C)C(N)=O)NC(=O)[C@H](CC(N)=O)NC(=O)[C@H](CCC(N)=O)NC(=O)[C@H]([C@@H](C)CC)NC2=O)cc1` (stereo in doubt), in test [1], the Activity was 0 IU/mg. Besides, the IC50 at Oxytocin receptor [2] was 80 nM. Also, the Kb on Oxytocin receptor [3] is 4.9 nM. Further, the result in test [4] was inactive.
With `CCOc1ccc(CC2NC(=O)CCSSC[C@@H](C(=O)NC(C)(C)C(=O)N[C@@H](CC(C)C)C(=O)N3CCCC[C@@H]3C(N)=O)NC(=O)[C@H](CC(N)=O)NC(=O)[C@H](CCC(N)=O)NC(=O)[C@H]([C@@H](C)CC)NC2=O)cc1` (stereo in doubt), the Activity in test [1] is 0 IU/mg. Further, in test [4], the result was inactive.
On Oxytocin receptor [2], `CC[C@H](C)[C@@H]1NC(=O)[C@H](Cc2ccc(O)cc2)NC(=O)[C@@H](N)CSSC[C@@H](C(=O)N[C@H](C(=O)N[C@@H](CC(C)C)C(=O)NCC(N)=O)C(C)(C)C)NC(=O)[C@H](CC(N)=O)NC(=O)[C@H](CCC(N)=O)NC1=O` gave a half-maximal inhibitory concentration (IC50) of 1380 nM.
Consider `CC(C)C[C@H](NC(=O)[C@@H](NC(=O)[C@@H]1CSSC[C@H](N)C(=O)N[C@@H](Cc2ccc(O)cc2)C(=O)N[C@@H](C(C)(C)C)C(=O)N[C@@H](CCC(N)=O)C(=O)N[C@@H](CC(N)=O)C(=O)N1)C(C)(C)C)C(=O)NCC(N)=O`, for which, at Oxytocin receptor [2], the concentration for half-maximal inhibition (IC50) was 51700 nM. For the same molecule, the Kb at Oxytocin receptor [3] is 741 nM.
On to `CCOc1ccc(CC2NC(=O)CCSSC[C@@H](C(=O)N[C@H](C(=O)N[C@@H](CC(C)C)C(=O)NCC(N)=O)C(C)(C)C)NC(=O)[C@H](CC(N)=O)NC(=O)[C@H](CCC(N)=O)NC(=O)[C@H](C(C)(C)C)NC2=O)cc1` (stereo in doubt), for which, in test [1], the Activity turned out to be 0 IU/mg. Further, on Oxytocin receptor [2], the IC50 was 7850 nM. The Kb at Oxytocin receptor [3] was 355 nM. Besides, the result in test [4] was inactive.
`CC(C)C[C@H](NC(=O)[C@H](NC(=O)[C@@H]1CSSC[C@H](N)C(=O)N[C@@H](Cc2ccc(O)cc2)C(=O)N[C@@H](C(C)(C)C)C(=O)N[C@@H](CCC(N)=O)C(=O)N[C@@H](CC(N)=O)C(=O)N1)C(C)(C)C)C(=O)NCC(N)=O`: in test [1], the Activity was 0 IU/mg. In test [4], the result was inactive.
For the molecule `CCOc1ccc(CC2NC(=O)CCSSC[C@@H](C(=O)N3Cc4ccccc4C[C@@H]3C(=O)N[C@@H](CC(C)C)C(=O)N3Cc4ccccc4C[C@@H]3C(N)=O)NC(=O)[C@H](CC(N)=O)NC(=O)[C@H](CCC(N)=O)NC(=O)[C@H]([C@@H](C)CC)NC2=O)cc1` (stereo in doubt), the Activity in test [1] amounted to 0 IU/mg. At Oxytocin receptor [2], this molecule registered an IC50 of 25 nM. Also, the Kb at Oxytocin receptor [3] is 8.51 nM. Further, the outcome in test [4] was inactive.
The molecule `CC[C@H](C)[C@@H]1NC(=O)[C@H](Cc2ccc(O)cc2)NC(=O)[C@@H](N)CSSC[C@@H](C(=O)N[C@@H](C(=O)N[C@@H](CC(C)C)C(=O)NCC(N)=O)C(C)(C)C)NC(=O)[C@H](CC(N)=O)NC(=O)[C@H](CCC(N)=O)NC1=O` showed an Activity in test [1] of 1.8 IU/mg. The result in test [4] was inactive.
In the case of `CCOc1ccc(C[C@H]2NC(=O)[C@@H](N)CSSC[C@@H](C(=O)N3CCC[C@H]3C(=O)N[C@@H](CC(C)C)C(=O)NCC(N)=O)NC(=O)[C@H](CC(N)=O)NC(=O)[C@H](CCC(N)=O)NC(=O)[C@H]([C@@H](C)CC)NC2=O)cc1`, the Activity in test [1] came to 0 IU/mg. The Kb on Oxytocin receptor [3] is 43.7 nM.
As to `CC[C@H](C)[C@@H]1NC(=O)[C@H](Cc2ccc(O)cc2)NC(=O)[C@@H](N)CSSC[C@@H](C(=O)N2CCC[C@H]2C(=O)N[C@@H](CC(C)C)C(=O)NCC(N)=O)NC(=O)[C@H](CC(N)=O)NC(=O)[C@H](CCC(N)=O)NC1=O`, the Activity in test [1] worked out at 546 IU/mg.
At Oxytocin receptor [2], `CCOc1ccc(C[C@H]2NC(=O)CCSSC[C@@H](C(=O)NC(C)(C)C(=O)N[C@@H](CC(C)C)C(=O)N3Cc4ccccc4C[C@@H]3C(N)=O)NC(=O)[C@H](CC(N)=O)NC(=O)[C@H](CCC(N)=O)NC(=O)[C@H]([C@@H](C)CC)NC2=O)cc1` registered a half-maximal inhibitory concentration (IC50) of 55 nM. Further, the Kb at Oxytocin receptor [3] is 13.5 nM.
`CCOc1ccc(CC2NC(=O)CCSSC[C@@H](C(=O)N[C@H](C(=O)N[C@@H](CC(C)C)C(=O)NCC(N)=O)C(C)(C)C)NC(=O)[C@H](CC(N)=O)NC(=O)[C@H](CCC(N)=O)NC(=O)[C@H]([C@@H](C)CC)NC2=O)cc1` (stereo in doubt) registered an Activity in test [1] of 0 IU/mg. The molecule also displayed a half-inhibitory concentration (IC50) on Oxytocin receptor [2] of 1000 nM. Moreover, the Kb on Oxytocin receptor [3] was 11.7 nM. Besides, in test [4], the result was inactive.
`CCc1ccc(C[C@@H]2NC(=O)CCSSC[C@@H](C(=O)NC(C)(C)C(=O)N[C@@H](CC(C)C)C(=O)NCC(N)=O)NC(=O)[C@H](CC(N)=O)NC(=O)[C@H](CCC(N)=O)NC(=O)[C@H]([C@@H](C)CC)NC2=O)cc1` displayed an Activity in test [1] of 0 IU/mg. Further, at Oxytocin receptor [3], the Kb was 39.8 nM. Besides, the result in test [4] was inactive.
On to `CC[C@H](C)[C@@H]1NC(=O)[C@H](Cc2ccc(O)cc2)NC(=O)[C@@H](N)CSSC[C@@H](C(=O)NC(C)(C)C(=O)N[C@@H](CC(C)C)C(=O)NCC(N)=O)NC(=O)[C@H](CC(N)=O)NC(=O)[C@H](CCC(N)=O)NC1=O` (H-CYIQNC[Aib]LG-NH2; disulfide 1-6), for which the Activity in test [1] worked out at 1.7 IU/mg. The 50% inhibitory concentration (IC50) on Oxytocin receptor [2] was 75 nM. Moreover, the outcome in test [4] was inactive.
For `CCOc1ccc(CC2NC(=O)CCSSC[C@@H](C(=O)NC(C)(C)C(=O)N[C@@H](CC(C)C)C(=O)NCC(N)=O)NC(=O)[C@H](CC(N)=O)NC(=O)[C@H](CCC(N)=O)NC(=O)[C@H]([C@@H](C)CC)NC2=O)cc1` (stereo in doubt), the Activity in test [1] amounted to 0 IU/mg. In addition, the IC50 at Oxytocin receptor [2] stood at 485 nM. Also, at Oxytocin receptor [3], the Kb is 17.8 nM. Also, in test [4], the result was inactive.
For `CC[C@H](C)[C@@H]1NC(=O)[C@H](Cc2ccc(O)cc2)NC(=O)CCSSC[C@@H](C(=O)N2Cc3ccccc3C[C@@H]2C(=O)N[C@@H](CC(C)C)C(=O)NCC(N)=O)NC(=O)[C@H](CC(N)=O)NC(=O)[C@H](CCC(N)=O)NC1=O` the same measures were 1 IU/mg, 380 nM, 10 nM and “inactive”.
On to `CCOc1ccc(C[C@H]2NC(=O)CCSSC[C@@H](C(=O)N3CCC[C@H]3C(=O)N[C@@H](CCCN)C(=O)NCC(N)=O)NC(=O)[C@H](CC(N)=O)NC(=O)[C@H]([C@@H](C)O)NC(=O)[C@H]([C@@H](C)CC)NC2=O)cc1` [ATOSIBAN] ([Mpa][dY](Et)ITNCP[Orn]G-NH2; disulfide 1-6), for which, in test [1], the Activity was 0 IU/mg. Besides, the Kb at Oxytocin receptor [3] is 5.13 nM.
The molecule `CC[C@H](C)[C@@H]1NC(=O)[C@H](Cc2ccc(O)cc2)NC(=O)[C@@H](N)CSSC[C@@H](C(=O)N2CCCC[C@H]2C(=O)N[C@@H](CC(C)C)C(=O)NCC(N)=O)NC(=O)[C@H](CC(N)=O)NC(=O)[C@H](CCC(N)=O)NC1=O` showed an Activity in test [1] of 79.8 IU/mg. Further, the half-maximal inhibitory concentration (IC50) at Oxytocin receptor [2] was determined as 7 nM. Also, the result in test [4] was inactive.
In the case of `CC[C@H](C)[C@@H]1NC(=O)[C@H]2Cc3ccccc3CN2C(=O)CCSSC[C@@H](C(=O)NC(C)(C)C(=O)N[C@@H](CC(C)C)C(=O)NCC(N)=O)NC(=O)[C@H](CC(N)=O)NC(=O)[C@H](CCC(N)=O)NC1=O`, the Activity in test [1] was determined as 0 IU/mg. Moreover, the half-inhibitory concentration (IC50) at Oxytocin receptor [2] was 8500 nM. Moreover, on Oxytocin receptor [3], the Kb is 123 nM. Besides, the outcome in test [4] was inactive.
In test [1], `CC[C@H](C)[C@@H]1NC(=O)[C@H](Cc2ccc(O)cc2)NC(=O)CCSSC[C@H](C(=O)N2CCC[C@H]2C(=O)N[C@@H](CC(C)C)C(=O)NCC(N)=O)NC(=O)[C@H](CC(N)=O)NC(=O)[C@H](CCC(N)=O)NC1=O` showed an Activity of 803 IU/mg.

(Values after ChEMBL document CHEMBL1147207 (Eur J Med Chem, 2007).)
